# Literature values, collected in patent publication US9308174B2, “Lyophilized formulations of bendamustine hydrochloride” (CHEMI S.P.A., priority 2013, dated 2016).
# Where two headings read alike, the source gives them in different places.
# How the values were obtained:
# [1] = water, 5° C.
structure (smiles),measurement,setting,value
"Cl.Cn1c(CCCC(=O)O)nc2cc(N(CCCl)CCCl)ccc21 [bendamustine hydrochloride, Bendamustine hydrochloride]",HP1 percentage,[1]; after 3 hours,0.86%
same,HP1 percentage,[1]; after 6 hours,3.81%
same,appearance of the solution,[1]; after 6 hours,formation of a precipitate
same,HP1 percentage,[1]; time=0,0.6%
same,time to 10% degradation of the active ingredient,"aqueous solution 0.25 mg/ml, room temperature",4.2 h
same,time to lose 10% of its title (t90),solution at 4° C.,119.5 h
same,time to lose 10% of its title (t90),solution at 23° C.,9.2 h
